Assay results from ChEMBL document CHEMBL6114961, “Novel isoxazole thiophene-containing compounds active against Mycobacterium tuberculosis” (Bioorg Med Chem Lett, 2025).
pEC50, pIC50: −log10 of the molar value. ≈ marks a conversion by molar mass, not a printed value.

Tests used:
[1] = test system: Mycobacterium tuberculosis; assay: Antituberculosis activity against Mycobacterium tuberculosis H37Rv infected in human THP-1 cells assessed as reduction in bacterial growth pre-infected with bacteria for 24 hrs followed by compound addition and measured 3 days by luminescence based intramacrophage assay; assay type: functional, organism-based
HepG2 = assay: Cytotoxicity against human HepG2 cells measured after 3 days by Cell Titer-Glo Luminescent Cell Viability Assay; assay type: functional; settings: HepG2, 72 h, time 3 day
[2] = test system: Mycobacterium tuberculosis; assay: Antituberculosis activity against Mycobacterium tuberculosis H37Rv assessed as reduction in bacterial growth measured after 7 days using 7H9 broth by Alamar blue staining based analysis; assay type: functional; settings: 168 h, time 7 day
[3] = Selectivity index, ratio of CC50 for Cytotoxicity against human HepG2 cells to MIC for antituberculosis activity against Mycobacterium tuberculosis H37Rv assessed as reduction in bacterial growth; assay type: toxicity, cell-based, Hep G2; settings: read-out: Selectivity Index
[4] = Metabolic stability in mouse liver microsomes assessed as intrinsic clearance; assay type: ADME, Microsome; settings: read-out: CLH
[5] = Plasma protein binding in mouse assessed as unbound fraction; assay type: ADME, cell-free
[6] = Apparent permeability in human Caco-2 cells across apical to basolateral side; assay type: ADME, cell-based
[7] = Apparent permeability in human Caco-2 cells across basolateral side to apical side; assay type: ADME, cell-based
Cytochrome P450 3A4 = Cytochrome P450 3A4 (Homo sapiens, UniProt P08684); assay: Inhibition of CYP3A4 (unknown origin); assay type: ADME
Chain of Cytochrome P450 3A4 (P08684 whole entry): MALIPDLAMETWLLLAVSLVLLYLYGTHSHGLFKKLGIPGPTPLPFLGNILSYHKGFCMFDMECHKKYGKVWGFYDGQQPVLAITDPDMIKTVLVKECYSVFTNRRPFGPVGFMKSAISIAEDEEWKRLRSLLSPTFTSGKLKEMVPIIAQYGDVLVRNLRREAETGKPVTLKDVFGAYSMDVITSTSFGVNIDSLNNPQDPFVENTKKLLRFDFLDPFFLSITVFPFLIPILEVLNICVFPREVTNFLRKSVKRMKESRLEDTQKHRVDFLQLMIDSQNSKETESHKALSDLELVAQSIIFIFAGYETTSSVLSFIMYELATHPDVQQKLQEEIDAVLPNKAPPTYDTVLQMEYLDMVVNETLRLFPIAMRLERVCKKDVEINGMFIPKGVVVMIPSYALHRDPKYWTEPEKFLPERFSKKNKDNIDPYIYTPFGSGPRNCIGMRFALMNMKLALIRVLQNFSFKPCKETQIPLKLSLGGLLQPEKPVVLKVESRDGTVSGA

Cytochrome P450 1A2 = biological target: T1, Cytochrome P450 1A2 (Homo sapiens, UniProt P05177); assay: Inhibition of CYP1A2 (unknown origin); assay type: ADME
T1 sequence (P05177 whole entry): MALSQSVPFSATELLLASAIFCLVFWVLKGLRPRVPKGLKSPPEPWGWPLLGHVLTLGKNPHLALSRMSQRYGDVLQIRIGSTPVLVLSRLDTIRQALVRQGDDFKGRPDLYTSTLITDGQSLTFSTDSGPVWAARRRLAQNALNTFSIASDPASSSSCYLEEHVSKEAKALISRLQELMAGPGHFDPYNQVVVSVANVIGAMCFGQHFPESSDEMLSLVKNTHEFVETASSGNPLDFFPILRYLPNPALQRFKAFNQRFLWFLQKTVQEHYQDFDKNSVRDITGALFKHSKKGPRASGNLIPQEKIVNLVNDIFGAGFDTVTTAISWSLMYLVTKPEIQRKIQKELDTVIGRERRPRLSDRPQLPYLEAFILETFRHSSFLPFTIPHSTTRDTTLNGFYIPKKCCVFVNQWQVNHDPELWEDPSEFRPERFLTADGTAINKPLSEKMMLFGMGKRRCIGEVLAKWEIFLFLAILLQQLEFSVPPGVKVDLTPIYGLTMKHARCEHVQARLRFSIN

Cytochrome P450 2D6 = Cytochrome P450 2D6 (Homo sapiens, UniProt P10635); assay: Inhibition of CYP2D6 (unknown origin); assay type: ADME
Chain of Cytochrome P450 2D6 (P10635 whole entry): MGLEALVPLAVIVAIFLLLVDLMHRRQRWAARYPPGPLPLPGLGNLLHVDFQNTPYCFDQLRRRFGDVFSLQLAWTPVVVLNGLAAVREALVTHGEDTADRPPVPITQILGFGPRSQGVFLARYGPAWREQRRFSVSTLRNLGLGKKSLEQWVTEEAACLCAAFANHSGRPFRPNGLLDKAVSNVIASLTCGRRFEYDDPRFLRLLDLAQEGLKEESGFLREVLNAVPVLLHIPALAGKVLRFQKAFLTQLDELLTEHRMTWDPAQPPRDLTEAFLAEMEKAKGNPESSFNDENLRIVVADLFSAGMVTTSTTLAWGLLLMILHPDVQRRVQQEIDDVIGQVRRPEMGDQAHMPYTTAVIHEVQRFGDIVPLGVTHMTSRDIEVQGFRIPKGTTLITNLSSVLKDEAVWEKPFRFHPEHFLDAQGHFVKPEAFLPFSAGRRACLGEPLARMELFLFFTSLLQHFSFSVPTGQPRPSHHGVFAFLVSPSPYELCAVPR

Cytochrome P450 2C19 = Cytochrome P450 2C19 (Homo sapiens, UniProt P33261); assay: Inhibition of CYP2C19 (unknown origin); assay type: ADME
Chain of Cytochrome P450 2C19 (P33261 whole entry): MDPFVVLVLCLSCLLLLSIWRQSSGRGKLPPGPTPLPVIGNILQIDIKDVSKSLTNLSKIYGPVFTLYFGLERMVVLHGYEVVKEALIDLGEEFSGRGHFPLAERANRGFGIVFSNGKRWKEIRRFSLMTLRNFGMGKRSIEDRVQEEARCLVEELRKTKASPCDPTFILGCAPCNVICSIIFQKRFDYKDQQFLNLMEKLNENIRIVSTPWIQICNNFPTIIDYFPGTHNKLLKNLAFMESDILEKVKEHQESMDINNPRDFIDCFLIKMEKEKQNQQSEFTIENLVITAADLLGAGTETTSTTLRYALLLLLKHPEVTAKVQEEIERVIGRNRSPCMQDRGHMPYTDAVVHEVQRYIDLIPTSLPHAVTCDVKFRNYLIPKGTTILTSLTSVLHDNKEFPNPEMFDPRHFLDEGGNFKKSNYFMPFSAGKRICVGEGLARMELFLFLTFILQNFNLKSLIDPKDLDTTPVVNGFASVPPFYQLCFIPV

Cytochrome P450 2C9 = Cytochrome P450 2C9 (Homo sapiens, UniProt P11712); assay: Inhibition of CYP2C9 (unknown origin); assay type: ADME
Chain of Cytochrome P450 2C9 (P11712 whole entry): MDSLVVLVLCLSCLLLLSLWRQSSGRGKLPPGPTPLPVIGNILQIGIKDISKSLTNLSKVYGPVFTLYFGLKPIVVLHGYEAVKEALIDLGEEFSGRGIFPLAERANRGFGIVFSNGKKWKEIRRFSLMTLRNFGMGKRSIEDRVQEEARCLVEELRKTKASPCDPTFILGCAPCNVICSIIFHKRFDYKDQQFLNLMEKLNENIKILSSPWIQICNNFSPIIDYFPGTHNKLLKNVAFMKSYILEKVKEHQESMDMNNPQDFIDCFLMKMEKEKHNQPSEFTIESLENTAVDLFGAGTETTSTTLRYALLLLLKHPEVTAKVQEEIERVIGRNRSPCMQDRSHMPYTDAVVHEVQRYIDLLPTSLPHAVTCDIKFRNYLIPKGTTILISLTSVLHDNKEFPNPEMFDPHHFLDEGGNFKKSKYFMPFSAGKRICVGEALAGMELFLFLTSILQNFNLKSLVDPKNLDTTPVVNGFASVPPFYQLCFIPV

[8] = biological target: Voltage-gated inwardly rectifying potassium channel KCNH2 (Homo sapiens, UniProt Q12809); assay: Inhibition of human ERG; assay type: toxicity
Chain of Voltage-gated inwardly rectifying potassium channel KCNH2 (Q12809 whole entry): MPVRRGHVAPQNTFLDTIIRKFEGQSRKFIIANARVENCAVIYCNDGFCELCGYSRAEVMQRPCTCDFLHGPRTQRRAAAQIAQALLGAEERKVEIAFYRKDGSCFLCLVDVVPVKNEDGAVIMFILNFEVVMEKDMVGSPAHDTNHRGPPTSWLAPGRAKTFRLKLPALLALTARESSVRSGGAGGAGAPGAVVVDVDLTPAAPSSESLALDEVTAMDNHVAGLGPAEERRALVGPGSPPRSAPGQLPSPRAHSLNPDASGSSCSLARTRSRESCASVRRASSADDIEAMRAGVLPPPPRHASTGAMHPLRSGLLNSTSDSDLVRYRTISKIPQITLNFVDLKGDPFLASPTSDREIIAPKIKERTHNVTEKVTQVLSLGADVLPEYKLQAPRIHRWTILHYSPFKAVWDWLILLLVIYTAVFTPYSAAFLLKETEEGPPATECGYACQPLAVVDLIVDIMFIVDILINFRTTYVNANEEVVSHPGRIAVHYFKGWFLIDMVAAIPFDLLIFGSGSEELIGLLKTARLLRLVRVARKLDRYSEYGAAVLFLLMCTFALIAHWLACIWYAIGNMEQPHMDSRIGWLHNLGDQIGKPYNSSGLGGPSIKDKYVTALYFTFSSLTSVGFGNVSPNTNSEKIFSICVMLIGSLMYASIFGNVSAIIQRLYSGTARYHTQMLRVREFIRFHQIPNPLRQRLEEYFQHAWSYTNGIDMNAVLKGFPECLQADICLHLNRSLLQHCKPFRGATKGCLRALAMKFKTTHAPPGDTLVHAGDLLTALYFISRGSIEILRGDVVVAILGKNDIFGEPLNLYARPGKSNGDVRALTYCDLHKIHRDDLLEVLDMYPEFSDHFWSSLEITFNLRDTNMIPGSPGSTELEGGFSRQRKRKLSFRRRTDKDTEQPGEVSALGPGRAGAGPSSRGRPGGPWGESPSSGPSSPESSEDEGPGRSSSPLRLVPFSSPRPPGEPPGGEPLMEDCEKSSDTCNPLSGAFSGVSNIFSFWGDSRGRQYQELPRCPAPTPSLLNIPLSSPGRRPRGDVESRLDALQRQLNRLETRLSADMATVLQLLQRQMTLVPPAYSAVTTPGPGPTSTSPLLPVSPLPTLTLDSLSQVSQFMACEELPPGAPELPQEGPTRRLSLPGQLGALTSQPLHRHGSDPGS

[9] = Cmax in male CD-1 mouse at 20 mg/kg, po; assay type: ADME, organism-based; settings: in vivo
[10] = Tmax in male CD-1 mouse at 20 mg/kg, po; assay type: ADME, organism-based; settings: in vivo
[11] = Half life in male CD-1 mouse at 20 mg/kg, po; assay type: ADME, organism-based; settings: in vivo
[12] = MRT (0 tot 24 hrs) in male CD-1 mouse at 20 mg/kg, po; assay type: ADME, organism-based; settings: in vivo
[13] = AUC (0 tot 24 hrs) in male CD-1 mouse at 20 mg/kg, po; assay type: ADME, organism-based; settings: in vivo
[14] = Oral bioavailability in male CD-1 mouse at 20 mg/kg; assay type: ADME, organism-based; settings: in vivo
[15] = AUC (0 tot 24 hrs) in male CD-1 mouse at 3 mg/kg, iv; assay type: ADME, organism-based; settings: in vivo
[16] = Plasma concentration in male CD-1 mouse at 20 mg/kg, po measured for 14 hrs; assay type: ADME, organism-based
[17] = test system: Mycobacterium tuberculosis; assay: Bactericidal activity against non-replicating Mycobacterium tuberculosis Hu-Coates model assessed as reduction in CFU at 20 uM; assay type: functional
[18] = test system: Mycobacterium tuberculosis; assay: Bactericidal activity against non-replicating Mycobacterium tuberculosis Hu-Coates model assessed as reduction in CFU at 20 uM in presence of BPaL; assay type: functional
[19] = Plasma concentration in male CD-1 mouse at 20 mg/kg, po measured for 6 hrs; assay type: ADME, organism-based

O=S(=O)(Nc1cc(-c2ccsc2)no1)C1CCOC1 (stereo unspecified)
pEC50 [1]: < 4.60
CC50 (HepG2): > 40 µM

O=S(=O)(Nc1cc(-c2ccsc2)no1)c1c(F)cccc1F
pEC50 [1]: 4.86
CC50 (HepG2): > 40 µM

O=S(=O)(Nc1cc(-c2csc(C(F)(F)F)c2)no1)c1ccccc1F
pEC50 [1]: < 4.60
CC50 (HepG2): > 40 µM

O=S(=O)(Nc1cc(-c2ccsc2)no1)c1cccc(F)c1
pEC50 [1]: 4.61
CC50 (HepG2): > 40 µM

Cc1cc(-c2cc(NS(=O)(=O)c3ccccc3F)on2)c(C)s1
pEC50 [1]: 4.61
CC50 (HepG2): > 40 µM

CN(c1cc(-c2ccsc2)no1)S(=O)(=O)c1ccccc1F
pEC50 [1]: 4.90
CC50 (HepG2): > 40 µM

O=S(=O)(Nc1cc(-c2ccsc2)no1)c1ccc2c(c1)CC2
pEC50 [1]: 5.44
CC50 (HepG2): > 40 µM

O=S(=O)(Nc1cc(-c2ccsc2)no1)c1ccccc1
pEC50 [1]: < 4.60
CC50 (HepG2): > 40 µM

O=S(=O)(Nc1cc(-c2ccsc2)no1)c1cccc(F)c1F
pEC50 [1]: < 4.60
CC50 (HepG2): > 40 µM

CC1(C)COCCC1S(=O)(=O)Nc1cc(-c2ccsc2)no1 (stereo unspecified)
pEC50 [1]: < 4.60
CC50 (HepG2): > 40 µM

O=S(=O)(Nc1cc(-c2ccsc2)no1)c1ccccc1Cl
pEC50 [1]: 4.83
CC50 (HepG2): > 40 µM

O=S(=O)(Nc1cc(-c2ccsc2)no1)c1cc(F)ccc1F
pEC50 [1]: < 4.60
CC50 (HepG2): > 40 µM

O=S(=O)(Nc1cc(-c2ccsc2)no1)c1ccc(F)cc1F
pEC50 [1]: 4.60
CC50 (HepG2): > 40 µM

O=S(=O)(Nc1cc(-c2ccsc2)no1)C1CCC(F)(F)CC1
pEC50 [1]: < 4.60
CC50 (HepG2): > 40 µM

O=S(=O)(Nc1cc(-c2ccsc2)no1)c1ccc2c(c1)CCC2
pEC50 [1]: 4.60
CC50 (HepG2): > 40 µM

O=S(=O)(CC1CCOCC1)Nc1cc(-c2ccsc2)no1
pEC50 [1]: < 4.60
CC50 (HepG2): > 40 µM

O=S(=O)(Nc1noc(-c2ccsc2)n1)C1CCOCC1
pEC50 [1]: < 4.60

O=S(=O)(Nc1cc(-c2ccsc2)no1)C1CCCCC1
pEC50 [1]: 4.60
CC50 (HepG2): > 40 µM

O=C(Nc1cc(-c2ccsc2)no1)c1ccccc1F
pEC50 [1]: 4.64
CC50 (HepG2): > 40 µM

O=S(=O)(Nc1cc(-c2ccsc2)no1)c1cccnc1F
pEC50 [1]: < 4.60
CC50 (HepG2): > 40 µM

O=S(=O)(Nc1cc(-c2cscn2)no1)C1CCOCC1
pEC50 [1]: < 4.60
CC50 (HepG2): > 40 µM

O=S(=O)(Nc1cc(-c2ccoc2)no1)C1CCOCC1
pEC50 [1]: < 4.60
CC50 (HepG2): > 40 µM

O=S(=O)(Nc1cc(-c2ccsn2)no1)C1CCOCC1
pEC50 [1]: < 4.60
CC50 (HepG2): > 25 µM

O=S(=O)(Nc1cc(-c2ccsc2)no1)c1ccccc1F
pEC50 [1]: 5.53
CC50 (HepG2): > 40 µM
MIC90 [2]: 1.24 µM (≈ 0.402 µg/mL)
selectivity ratio [3]: > 32
microsomal CLint [4]: 5.6 µL/min/mg
fraction unbound [5]: 0.996
Papp A→B [6]: 3.6 ×10⁻⁶ cm/s
Papp B→A [7]: 27.3 ×10⁻⁶ cm/s
pIC50 (Cytochrome P450 3A4): < 4.30
pIC50 (Cytochrome P450 1A2): < 4.30
pIC50 (Cytochrome P450 2D6): < 4.30
pIC50 (Cytochrome P450 2C19): 4.55
pIC50 (Cytochrome P450 2C9): 5.49
pIC50 [8]: < 4.52
Cmax [9]: 64200 ng/mL
Tmax [10]: 40.2 min
half-life [11]: 110 min
MRT last at 24 h [12]: 3.44 h
AUC(0-t) at 24 h [13]: 4450 ng·h/mL
bioavailability [14]: 78%
AUC [15]: 50981 ng·min/mL
concentration at 14 h [16]: 949 ng/mL
Activity [17]: 1.02 log10CFU
Activity [18]: 3 log10CFU

O=S(=O)(Nc1cc(-c2csc(Cl)c2)no1)C1CCOCC1
pEC50 [1]: < 4.60
CC50 (HepG2): > 40 µM

O=S(=O)(Nc1cc(-c2ccsc2)no1)C1CCNCC1
pEC50 [1]: < 4.60
CC50 (HepG2): > 40 µM

O=S(=O)(Nc1cc(-c2cccnc2)no1)c1ccccc1F
pEC50 [1]: 4.61
CC50 (HepG2): > 40 µM

O=S(=O)(Nc1cc(-c2ccsc2)no1)c1c(F)cc(F)cc1F
pEC50 [1]: < 4.60
CC50 (HepG2): > 40 µM

O=S(=O)(Nc1cc(-c2cccs2)no1)C1CCOCC1
pEC50 [1]: < 4.60
CC50 (HepG2): > 40 µM

O=S(=O)(Nc1cc(-c2ccsc2)no1)C1CCOCC1
pEC50 [1]: 5.71
CC50 (HepG2): > 40 µM
microsomal CLint [4]: 0.2 µL/min/mg
fraction unbound [5]: 0.845
Cmax [9]: 24200 ng/mL
Tmax [10]: 40.2 min
half-life [11]: 131 min
MRT last at 24 h [12]: 1.7 h
AUC(0-t) at 24 h [13]: 713 ng·h/mL
bioavailability [14]: 58%
AUC [15]: 11076 ng·min/mL
concentration at 6 h [19]: 613 ng/mL
